Measured values taken from paper PMC6921407, “Novel coumarins active against Trypanosoma cruzi and toxicity assessment using the animal model Caenorhabditis elegans” (BMC Pharmacology & Toxicology, 2019).
Where two headings read alike, the source gives them in different places.

Legend:
[1] = system: Trypanosoma cruzi epimastigotes (Tulahuen 2 strain); assay: Anti-Trypanosoma cruzi activity: growth inhibition of epimastigotes (absorbance at 600 nm, day 5); type: cell-based; conditions: T. cruzi epimastigotes; for GI (%) / percentage of growth inhibition (PGI): test concentration not given
Experimental: Trypanosoma cruzi epimastigotes (Tulahuen 2 strain) were grown at 28 °C in an axenic milieu (BHI-Tryptose) supplemented with 5% fetal bovine serum (FBS), as previously described. Cells from a 10-day-old culture (stationary phase) were inoculated into 50 mL of fresh culture milieu to give an initial concentration of 1 × 10^6 cells per mL. Cell growth was followed by measuring the absorbance of the culture at 600 nm every day. Before inoculation, the milieu was supplemented with a given amount of the coumarin from a freshly prepared stock solution in DMSO (25 mM). The final concentration of DMSO in the culture medium never exceeded 0.4%, and the control was run in the presence of 0.4% DMSO and in the absence of drugs. […] Nifurtimox (Nfx) was used as the reference trypanocidal drug. The percentage of growth inhibition (PGI) was calculated as follows: PGI (%) = {1 - [(Ap - A0p) / (Ac - A0c)]} × 100, where Ap = […] of the culture containing the studied compound at day 5; […] = […] of the culture containing the studied compound just after addition of the inocula (day 0); Ac = […] of the culture in the absence of the studied compound (control) at day 5; […] = […] in the absence of the studied compound at day 0. […] At day 5, the absorbance of the culture was measured and related to the control.

[2] = Trypanosoma cruzi, TULAHUEN, 120 h, read-out: IC50

Structure (SMILES) | IC50 ([1]; read-out: IC50) [µM] | IC50 [1, 2] [µM] | melting point [°C] | GI (%) / percentage of growth inhibition (PGI) [1] | IC50 [1]
O=c1cc(CNc2ccccc2)c2cc(Cl)ccc2o1 [9a] | < 10 | 9.1 ± 1.6 | 187 to 188 | – | –
Cc1ccc(NCc2cc(=O)oc3ccc(Cl)cc23)cc1 [9b] | – | > 100 | 201 | < 20.7% | –
O=c1cc(CNc2ccc(Cl)cc2)c2cc(Cl)ccc2o1 [9c] | – | > 100 | 205 to 207 | < 20.4% | –
O=c1cc(CNc2ccc(Br)cc2)c2cc(Cl)ccc2o1 [9d] | – | > 100 | 231 to 232 | 1.9 ± 0.8% | –
COc1ccc(NCc2cc(=O)oc3ccc(Cl)cc23)cc1 [9e] | – | > 100 | 192 to 194 | < 29.3% | –
Cc1cc(C)cc(NCc2cc(=O)oc3ccc(Cl)cc23)c1 [9f] | – | > 100 | 192 to 194 | 6.1 ± 1.3% | –
CN(Cc1cc(=O)oc2ccc(Cl)cc12)c1ccccc1 [9g] | – | 14.2 ± 1.9 | 200 to 201 | – | –
CN(Cc1cc(=O)oc2ccc(Cl)cc12)c1ccc(Cl)cc1 [9h] | – | > 25 | 185 to 186 | < 48.4% | –
O=c1cc(CN2CCCCC2)c2cc(Cl)ccc2o1 [9i] | – | > 100 | 181 to 182 | 15.9 ± 0.9% | –
O=c1cc(CN2CCNCC2)c2cc(Cl)ccc2o1 [9j] | – | > 31 | > 300 | < 23.6% | –
O=c1cc(CN2CCOCC2)c2cc(Cl)ccc2o1 [9k] | – | > 100 | 177 to 178 | < 9.6% | –
O=c1cc(CN2CCSCC2)c2cc(Cl)ccc2o1 [9l] | – | > 100 | 152 to 153 | 29 ± 0.4% | –
O=c1cc(CN2CCS(=O)(=O)CC2)c2cc(Cl)ccc2o1 [9m] | – | > 25 | 162 to 164 | < 59.9% | –
O=c1cc(CN2CCC(c3ccccc3)CC2)c2cc(Cl)ccc2o1 [9n] | – | > 25 | 163 to 164 | < 51.5% | –
Cc1ccc2oc(=O)cc(CNc3ccccc3)c2c1 [10a] | – | > 100 | 164 to 165 | 38.5 ± 2.6% | –
Cc1ccc(NCc2cc(=O)oc3ccc(C)cc23)cc1 [10b] | – | > 100 | 188 to 189 | 29.9 ± 0.9% | –
Cc1ccc2oc(=O)cc(CNc3ccc(Cl)cc3)c2c1 [10c] | – | > 100 | 180 to 181 | 18.5 ± 1.8% | –
Cc1ccc2oc(=O)cc(CNc3ccc(Br)cc3)c2c1 [10d] | – | > 100 | 178 to 179 | < 33.1% | –
COc1ccc(NCc2cc(=O)oc3ccc(C)cc23)cc1 [10e] | – | > 25 | 169 to 170 | 53.2 ± 1.3% | –
Cc1cc(C)cc(NCc2cc(=O)oc3ccc(C)cc23)c1 [10f] | – | > 100 | 179 to 180 | 32.5 ± 0.9% | –

Structure (SMILES) | IC50 ([1]; read-out: IC50) [µM] | IC50 [1, 2] [µM] | melting point [°C] | GI (%) / percentage of growth inhibition (PGI) [1] | IC50 [1]
Cc1ccc2oc(=O)cc(CN(C)c3ccc(Cl)cc3)c2c1 [10h] | – | > 25 | 173 to 174 | < 59.2% | –
Cc1ccc2oc(=O)cc(CN3CCCCC3)c2c1 [10i] | – | > 100 | – | < 15.9% | –
Cc1ccc2oc(=O)cc(CN3CCNCC3)c2c1 [10j] | – | – | > 300 | Inactive | Inactive
Cc1ccc2oc(=O)cc(CN3CCOCC3)c2c1 [10k] | – | – | 99 to 100 | Inactive | Inactive
Cc1ccc2oc(=O)cc(CN3CCSCC3)c2c1 [10l] | – | – | 121 to 122 | Inactive | Inactive
Cc1ccc2oc(=O)cc(CN3CCS(=O)(=O)CC3)c2c1 [10m] | – | – | 170 to 172 | Inactive | Inactive
Cc1ccc2oc(=O)cc(CN3CCC(c4ccccc4)CC3)c2c1 [10n] | – | 13.2 ± 2.6 | 106 to 107 | < 62.7% | –
CCc1ccc2oc(=O)cc(CNc3ccccc3)c2c1 [11a] | – | 27.7 ± 1.3 | 91 to 93 | 35.7 ± 0.7% | –
CCc1ccc2oc(=O)cc(CNc3ccc(C)cc3)c2c1 [11b] | – | > 25 | 171 to 172 | < 39.5% | –
CCc1ccc2oc(=O)cc(CNc3ccc(Cl)cc3)c2c1 [11c] | – | 11.2 ± 1.7 | 171 to 173 | 67.6 ± 2.7% | –
CCc1ccc2oc(=O)cc(CNc3ccc(Br)cc3)c2c1 [11d] | – | 35.4 ± 2.1 | 184 to 186 | < 21.9% | –
CCc1ccc2oc(=O)cc(CNc3ccc(OC)cc3)c2c1 [11e] | – | > 25 | 151 to 152 | < 52.5% | –
CCc1ccc2oc(=O)cc(CNc3cc(C)cc(C)c3)c2c1 [11f] | – | > 25 | 176 to 178 | < 44.3% | –
CCc1ccc2oc(=O)cc(CN3CCCCC3)c2c1 [11i] | – | 13.9 ± 2.8 | 96 to 98 | < 71.4% | –
CCc1ccc2oc(=O)cc(CN3CCNCC3)c2c1 [11j] | – | – | > 300 | Inactive | Inactive
CCc1ccc2oc(=O)cc(CN3CCOCC3)c2c1 [11k] | – | 22.7 ± 3.1 | 110 to 113 | 57.6 ± 3.4% | –
CCc1ccc2oc(=O)cc(CN3CCSCC3)c2c1 [11l] | – | > 10 | 134 to 135 | 72.9 ± 0.4% | –
CCc1ccc2oc(=O)cc(CN3CCS(=O)(=O)CC3)c2c1 [11m] | – | > 100 | 175 to 177 | < 10.2% | –
CCc1ccc2oc(=O)cc(CN3CCC(c4ccccc4)CC3)c2c1 [11n] | – | 30.3 ± 0.9 | 118 to 120 | 26.7 ± 4.0% | –
CC1CS(=O)(=O)CCN1/N=C/c1ccc([N+](=O)[O-])o1 (centres unmarked) [Nifurtimox, reference compound] | – | 5 ± 1 | – | – | –
